In assay [1] the test system is CCL17 secretion in peripheral human whole blood. Briefly: Human Whole Blood (HWB) CCL17 TR-FRET Assay (IL-13 stimulated CCL17 secretion). The assay is classed as cell-based. The settings on record: Homo sapiens, 48 h, human whole blood, IL-13 stimulated. In outline:
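TR-FRET sandwich immunoassay (665/615 nm ratio) read CCL17 in serum from heparinized whole blood after 16 h RT detection. Blood was exposed to compound for 2 h at 37 °C, then to 10 ng/mL IL-13 (final) for 48 h. IC50 from 11-point, 3-fold titrations in duplicate.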
On the technique in general: Time-resolved FRET reads energy transfer from a long-lived donor to a nearby acceptor.

Assay [2] deals with T1, STAT6 (Homo sapiens, UniProt P42226).
T1 construct: stably transfected HaCaT keratinocyte cell line, which expresses NanoLuc luciferase reporter gene under the transcriptional control of the STAT6 responsive promoter; endogenous in cells; host or cells: HaCaT keratinocyte reporter cell line (stably transfected with a NanoLuc reporter)
T1 sequence (P42226 1-847): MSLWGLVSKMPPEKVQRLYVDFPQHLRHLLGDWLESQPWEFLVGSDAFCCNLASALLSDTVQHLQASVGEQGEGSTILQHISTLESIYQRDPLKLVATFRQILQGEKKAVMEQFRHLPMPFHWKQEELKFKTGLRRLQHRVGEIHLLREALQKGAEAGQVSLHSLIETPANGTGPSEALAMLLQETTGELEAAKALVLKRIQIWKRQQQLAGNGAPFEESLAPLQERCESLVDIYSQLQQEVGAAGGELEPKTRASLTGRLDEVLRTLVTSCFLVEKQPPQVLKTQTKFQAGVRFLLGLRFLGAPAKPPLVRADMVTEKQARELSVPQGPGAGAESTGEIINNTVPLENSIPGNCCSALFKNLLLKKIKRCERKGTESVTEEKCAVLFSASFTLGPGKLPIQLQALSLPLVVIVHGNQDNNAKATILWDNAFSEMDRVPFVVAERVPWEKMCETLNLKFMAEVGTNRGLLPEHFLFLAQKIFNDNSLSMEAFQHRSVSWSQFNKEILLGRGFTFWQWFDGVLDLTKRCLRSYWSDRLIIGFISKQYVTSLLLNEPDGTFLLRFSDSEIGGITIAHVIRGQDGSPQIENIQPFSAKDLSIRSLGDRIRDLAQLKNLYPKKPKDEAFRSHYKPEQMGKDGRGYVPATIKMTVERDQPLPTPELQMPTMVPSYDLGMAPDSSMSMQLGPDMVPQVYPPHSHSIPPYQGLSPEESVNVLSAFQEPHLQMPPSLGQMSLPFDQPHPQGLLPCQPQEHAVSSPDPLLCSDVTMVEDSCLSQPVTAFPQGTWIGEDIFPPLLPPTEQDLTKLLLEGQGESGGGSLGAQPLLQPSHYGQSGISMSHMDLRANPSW
Briefly: STAT6 Reporter Luciferase Assay (IL-13 stimulated HaCaT keratinocyte NanoLuc reporter cells). Type of assay: cell-based. The note with it: IL-13 stimulated HaCaT STAT6 NanoLuc reporter cells; read-out: Reporter EC50. In outline: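 Luminescence from a NanoLuc reporter driven by the STAT6-responsive IL-13Ra2 promoter in HaCaT keratinocytes serves as the read-out. Compounds are given 2 h before a 4 h stimulation with 0.12 nM IL-13.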

SMILES strings stand for the structures.

Broadly, the IC50 is the concentration that inhibits the measured activity by half. A word on the EC50: it is the concentration at which the effect is half-maximal. `CN(C)C(=O)Nc1ccc(CNC(=O)c2nn(C)c3c2CN(c2ccc(C(=O)N(C)C)cn2)C2(CC2)C3)cc1` [Example 400, 5′-(5-(dimethylcarbamoyl)pyridin-2-yl)-N-(4-(3,3-dimethylureido)benzyl)-1′-methyl-1′,4′,5′,7′-tetrahydrospiro[cyclopropane-1,6′-pyrazolo[4,3-c]pyridine]-3′-carboxamide] came in with an IC50 in assay [1] of 2570 nM. For the same compound, the EC50 in assay [2] came out at 1040 nM.
The matching figures for `COc1ccnc2c1CCN(C(=O)c1ccc(N3CCc4c(c(C(=O)NCc5ccc(NC(=O)N(C)C)cc5)nn4C(C)C)C3)nc1)C2` [Example 407, N-(4-(3,3-dimethylureido)benzyl)-1-isopropyl-5-(5-(4-methoxy-5,6,7,8-tetrahydro-1,7-naphthyridine-7-carbonyl)pyridin-2-yl)-4,5,6,7-tetrahydro-1H-pyrazolo[4,3-c]pyridine-3-carboxamide]: 100 nM and 10 nM.
The matching figures for `CC(C)n1nc(C(=O)NCc2ccc(NC(=O)N(C)C)cc2)c2c1CCN(c1ccc(C(=O)N3CCc4c(ncn4C4CC4)C3)cn1)C2` [Example 420, 5-(5-(1-cyclopropyl-4,5,6,7-tetrahydro-1H-imidazo[4,5-c]pyridine-5-carbonyl)pyridin-2-yl)-N-(4-(3,3-dimethylureido)benzyl)-1-isopropyl-4,5,6,7-tetrahydro-1H-pyrazolo[4,3-c]pyridine-3-carboxamide]: 125 nM and 17 nM.
On the same counts, the results for `CC(C)n1nc(C(=O)NCc2ccc(NC(=O)N(C)C)cc2)c2c1CCN(c1ccc(CC(N)=O)cn1)C2` [Example 430, 5-(5-(2-amino-2-oxoethyl)pyridin-2-yl)-N-(4-(3,3-dimethylureido)benzyl)-1-isopropyl-4,5,6,7-tetrahydro-1H-pyrazolo[4,3-c]pyridine-3-carboxamide] are 1410 nM and 333 nM.
In assay [1], `CC(C)n1nc(C(=O)NCc2ccc(NC(=O)N(C)C)cc2)c2c1CCN(c1ccc(C(=O)N3Cc4cccc(C(=O)N(C)C)c4C3)cn1)C2` [Example 431, 5-(5-(4-(dimethylcarbamoyl)isoindoline-2-carbonyl)pyridin-2-yl)-N-(4-(3,3-dimethylureido)benzyl)-1-isopropyl-4,5,6,7-tetrahydro-1H-pyrazolo[4,3-c]pyridine-3-carboxamide] came in with an IC50 of 89 nM. The EC50 in assay [2] turned out to be 12 nM.
On the same counts, the results for `CC(C)n1ncc2c1CN(C(=O)c1ccc(N3CCc4c(c(C(=O)NCc5ccc(NC(=O)N(C)C)cc5)nn4C(C)C)C3)nc1)CC2` [Example 437, N-(4-(3,3-dimethylureido)benzyl)-1-isopropyl-5-(5-(1-isopropyl-4,5,6,7-tetrahydro-1H-pyrazolo[3,4-c]pyridine-6-carbonyl)pyridin-2-yl)-4,5,6,7-tetrahydro-1H-pyrazolo[4,3-c]pyridine-3-carboxamide] are 1050 nM and 45 nM.
`COc1ccc2c(n1)CN(C(=O)c1ccc(N3CCc4c(c(C(=O)NCc5ccc(NC(=O)N(C)C)cc5)nn4C(C)C)C3)nc1)CC2` [Example 443, N-(4-(3,3-dimethylureido)benzyl)-1-isopropyl-5-(5-(2-methoxy-5,6,7,8-tetrahydro-1,7-naphthyridine-7-carbonyl)pyridin-2-yl)-4,5,6,7-tetrahydro-1H-pyrazolo[4,3-c]pyridine-3-carboxamide] gave an IC50 in assay [1] of 878 nM. Moreover, the EC50 in assay [2] is 11 nM.
On the same counts, the results for `CC(C)n1nc(C(=O)NCc2ccc(N)cc2)c2c1[C@@H](C)CN(c1ccc(C(=O)N(C)C)cn1)C2` [Example 450, (S)-N-(4-aminobenzyl)-5-(5-(dimethylcarbamoyl)pyridin-2-yl)-1-isopropyl-7-methyl-4,5,6,7-tetrahydro-1H-pyrazolo[4,3-c]pyridine-3-carboxamide] are 93 nM and 21 nM.
On the same counts, the results for `CC(C)n1nc(C(=O)NCc2ccc(-c3ncc[nH]3)cc2)c2c1C[C@H](C)N(c1ncc(C(=O)N(C)C)cn1)C2` [Example 451, (S)-N-(4-(1H-imidazol-2-yl)benzyl)-5-(5-(dimethylcarbamoyl)pyrimidin-2-yl)-1-isopropyl-6-methyl-4,5,6,7-tetrahydro-1H-pyrazolo[4,3-c]pyridine-3-carboxamide] are 47 nM and 3 nM.
In assay [1], `CC(C)n1nc(C(=O)NCc2ccc(NC(=O)N(C)C)cc2)c2c1C[C@H](C)N(c1ncc(C(=O)N(C)C)cn1)C2` [Example 452, (S)-5-(5-(dimethylcarbamoyl)pyrimidin-2-yl)-N-(4-(3,3-dimethylureido)benzyl)-1-isopropyl-6-methyl-4,5,6,7-tetrahydro-1H-pyrazolo[4,3-c]pyridine-3-carboxamide] displayed an IC50 of 16 nM. The EC50 in assay [2] was 3 nM.
In assay [1], `CNC(=O)Nc1ccc(CNC(=O)c2nn(C(C)C)c3c2CN(c2ccc(C(N)=O)cn2)CC3)cc1` [Example 453, 5-(5-carbamoylpyridin-2-yl)-1-isopropyl-N-(4-(3-methylureido)benzyl)-4,5,6,7-tetrahydro-1H-pyrazolo[4,3-c]pyridine-3-carboxamide] displayed an IC50 of 12100 nM. Moreover, the EC50 in assay [2] was determined as 2150 nM.
On the same counts, the results for `CNC(=O)Nc1ccc(CNC(=O)c2nn(C(C)C)c3c2CN(c2ccc(C(=O)NC)cn2)CC3)cc1` [Example 454, 1-isopropyl-5-(5-(methylcarbamoyl)pyridin-2-yl)-N-(4-(3-methylureido)benzyl)-4,5,6,7-tetrahydro-1H-pyrazolo[4,3-c]pyridine-3-carboxamide] are 720 nM and 128 nM.
With `CNC(=O)c1ccc(N2CCc3c(c(C(=O)NCc4ccc(NC(N)=O)cc4)nn3C(C)C)C2)nc1` [Example 456, 1-isopropyl-5-(5-(methylcarbamoyl)pyridin-2-yl)-N-(4-ureidobenzyl)-4,5,6,7-tetrahydro-1H-pyrazolo[4,3-c]pyridine-3-carboxamide], the IC50 in assay [1] stood at 579 nM. The EC50 in assay [2] was found to be 742 nM.
With `CC(C)n1nc(C(=O)NCc2ccc(NC(N)=O)cc2)c2c1CCN(c1ccc(C(N)=O)cn1)C2` [Example 457, 5-(5-carbamoylpyridin-2-yl)-1-isopropyl-N-(4-ureidobenzyl)-4,5,6,7-tetrahydro-1H-pyrazolo[4,3-c]pyridine-3-carboxamide], the IC50 in assay [1] stood at 5010 nM. The 50% effective concentration (EC50) in assay [2] is 5960 nM.
On the same counts, the results for `CC(C)n1nc(C(=O)Nc2cccc(C(N)=O)c2F)c2c1[C@@H](C)CN(c1ccc(C(=O)N(C)C)cn1)C2` [Example 458, (S)-N-(3-carbamoyl-2-fluorophenyl)-5-(5-(dimethylcarbamoyl)pyridin-2-yl)-1-isopropyl-7-methyl-4,5,6,7-tetrahydro-1H-pyrazolo[4,3-c]pyridine-3-carboxamide] are more than 7650 nM and 173 nM.
In assay [1], `Cc1nn(C)c(=O)n1-c1ccc(N2Cc3c(C(=O)NCc4ccc(NC(=O)N(C)C)cc4)nn(C(C)C)c3[C@@H](C)C2)nc1` [Example 466, (S)-5-(5-(1,3-dimethyl-5-oxo-1,5-dihydro-4H-1,2,4-triazol-4-yl)pyridin-2-yl)-N-(4-(3,3-dimethylureido)benzyl)-1-isopropyl-7-methyl-4,5,6,7-tetrahydro-1H-pyrazolo[4,3-c]pyridine-3-carboxamide] came in with an IC50 of 18 nM. The EC50 in assay [2] was found to be 2 nM.

The record behind these values is patent publication US20250320213A1, “Nitrogen-Containing Heterocyclic Compounds” (Pfizer Inc., priority 2024, published 2025).
